Read-outs that look alike come from different tables or passages of the source.
Experiments:
[1] = tested on: Key Broadleaf Weed and Crop Species; assay: Post-Emergent Test II: postemergent herbicidal activity, visual rating after 14 d (Table 7); type: in vivo; settings: post-emergence, 336 h; for pest or weed control at 35 g/ha: 35 g ai/ha; for pest or weed control at 70 g/ha: 70 g ai/ha; for pest or weed control at 140 g/ha: 140 g ai/ha
Outline: (§1)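 Plants were raised in a greenhouse for 7-21 d and treated once at the first or second true leaf stage. Compounds, dissolved in 97:3 acetone:DMSO then diluted into an aqueous acetone/isopropanol/crop oil/Triton X-155 carrier, were applied by overhead track sprayer at 187 L/ha. After 14 d with subirrigation, injury was scored visually from 0 (none) to 100 (complete kill).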

[2] = tested on: Key Grass and Sedge Weeds as well as Grass Crops; assay: Post-Emergent Test II: postemergent herbicidal activity, visual rating after 14 d (Table 8); type: in vivo; settings: post-emergence, 336 h; for pest or weed control at 35 g/ha: 35 g ai/ha; for pest or weed control at 70 g/ha: 70 g ai/ha; for pest or weed control at 140 g/ha: 140 g ai/ha
Outline: as §1

[3] = lambsquarters (Chenopodium album), read-out: Visual Growth Reduction (%) 14 Days After Application CHEAL
[4] = oilseed rape, canola (Brassica napus), read-out: Visual Growth Reduction (%) 14 Days After Application BRSNN
[5] = redroot pigweed (Amaranthus retroflexus), read-out: Visual Growth Reduction (%) 14 Days After Application AMARE
[6] = sunflower (Helianthus annuus), read-out: Visual Growth Reduction (%) 14 Days After Application HELAN
[7] = velvetleaf (Abutilon theophrasti), read-out: Visual Growth Reduction (%) 14 Days After Application ABUTH
[8] = wild poinsettia (Euphorbia heterophylla), read-out: Visual Growth Reduction (%) 14 Days After Application EPHHL
[9] = barnyardgrass (Echinochloa crus-galli), read-out: Visual Growth Reduction (%) 14 Days After Application ECHCG
[10] = giant foxtail (Setaria faberi), read-out: Visual Growth Reduction (%) 14 Days After Application SETFA
[11] = maize, corn (Zea mays), read-out: Visual Growth Reduction (%) 14 Days After Application ZEAMX
[12] = rice (Oryza sativa), read-out: Visual Growth Reduction (%) 14 Days After Application ORYSA
[13] = wheat, spring (Triticum aestivum), read-out: Visual Growth Reduction (%) 14 Days After Application TRZAS
[14] = yellow nutsedge (Cyperus esculentus), read-out: Visual Growth Reduction (%) 14 Days After Application CYPES

COC(=O)c1nc(-c2ccc3c(c2)OC(F)(F)O3)c(F)c(N)c1OC [Compound 24]
pest or weed control at 35 g/ha [1, 3]: 0 to 29%
pest or weed control at 70 g/ha [1, 3]: 0 to 29%
pest or weed control at 140 g/ha [1, 3]: 0 to 29%
pest or weed control at 35 g/ha [1, 4]: 0 to 29%
pest or weed control at 70 g/ha [1, 4]: 0 to 29%
pest or weed control at 140 g/ha [1, 4]: 0 to 29%
pest or weed control at 35 g/ha [1, 5]: 0 to 29%
pest or weed control at 70 g/ha [1, 5]: 0 to 29%
pest or weed control at 140 g/ha [1, 5]: 0 to 29%
pest or weed control at 35 g/ha [1, 6]: 0 to 29%
pest or weed control at 70 g/ha [1, 6]: 0 to 29%
pest or weed control at 140 g/ha [1, 6]: 0 to 29%
pest or weed control at 35 g/ha [1, 7]: 0 to 29%
pest or weed control at 70 g/ha [1, 7]: 0 to 29%
pest or weed control at 140 g/ha [1, 7]: 0 to 29%
pest or weed control at 35 g/ha [1, 8]: 75 to 84%
pest or weed control at 70 g/ha [1, 8]: 95 to 100%
pest or weed control at 140 g/ha [1, 8]: 95 to 100%
pest or weed control at 35 g/ha [2, 9]: 60 to 74%
pest or weed control at 70 g/ha [2, 9]: 85 to 94%
pest or weed control at 140 g/ha [2, 9]: 95 to 100%
pest or weed control at 35 g/ha [2, 10]: 0 to 29%
pest or weed control at 70 g/ha [2, 10]: 0 to 29%
pest or weed control at 140 g/ha [2, 10]: 0 to 29%
pest or weed control at 35 g/ha [2, 11]: 60 to 74%
pest or weed control at 70 g/ha [2, 11]: 75 to 84%
pest or weed control at 140 g/ha [2, 11]: 75 to 84%
pest or weed control at 35 g/ha [2, 12]: 0 to 29%
pest or weed control at 70 g/ha [2, 12]: 0 to 29%
pest or weed control at 140 g/ha [2, 12]: 0 to 29%
pest or weed control at 35 g/ha [2, 13]: 0 to 29%
pest or weed control at 70 g/ha [2, 13]: 0 to 29%
pest or weed control at 140 g/ha [2, 13]: 30 to 44%
pest or weed control at 35 g/ha [2, 14]: 95 to 100%
pest or weed control at 70 g/ha [2, 14]: 95 to 100%
pest or weed control at 140 g/ha [2, 14]: 95 to 100%
